Key:
[1] = test system: Cynomolgus monkey corneal endothelial cells; experiment: Culture of monkey corneal endothelial cells with SB431542, cell form by phase-contrast microscope (Example 2); format: cell-based; conditions: primate CEC primary culture, base culture medium with 1 μmol/l SB431542; control showed fibroblast phenotype
Method: • Cynomolgus monkey corneal endothelial cells (MCEC; source of supply and culturing method): the MCECs were cultured by the improved-type protocol described previously [Koizumi N, et al. (2007) Invest Ophthalmol Vis Sci 48: 4519-4526], [Li W, et al. (2007) Invest Ophthalmol Vis Sci 48: 614-620]. Briefly speaking, eyeballs of cynomolgus monkeys, which were humanely killed for another purpose, were purchased (Nissei Bilis Co., Ltd., Ohtsu, Japan and Keari Co., Ltd., Wakayama, Japan) (the method is described above). The Descemet's membrane including corneal endothelial cells were exfoliated, and the corneal endothelial cells were mechanically exfoliated together with basement membranes, followed by treatment using dispase or collagenase (ROCHE catalog number: 10 103 586 001) and then primary culture. Typically, treatment was performed using 1 mg/mL collagenase A (Roche Applied Science, Penzberg, Germany) at 37° C. for 2 hours. For the culture medium, DMEM (INVITROGEN catalog number 12320) was used with 10% FBS (BIOWEST, catalog number: S1820-500) and 2 ng/ml basic FGF (INVITROGEN, catalog number: 13256-029) added thereto. […] In addition, after the cells were fixed, immunostaining was performed using ZO-1, Na^+/K^+-ATPase as a function-associated marker, followed by observation through a fluorescence microscope. […]

[2] = test system: Human corneal endothelial cells; experiment: Quantitative PCR of collagen type 1 and fibronectin in HCEC; format: cell-based; conditions: SB431542 1 μM, normalized with GAPDH, relative to control
Method: Amplified DNA fragments were electrophoresed with 1.5% agarose gel (Nacalai Tesque, catalog number:01149-76), and detected by staining with ethidium bromide (Nacalai Tesque, catalog number: 14603-51). • Quantitative PCR was performed using the following TaqMan (registered trademark) (Invitrogen) primers. collagen type 1: Hs00164004_m1; fibronectin: Hs01549976_m1; GAPDH: Hs00266705_g1. The PCR was performed using a StepOne™ (Applied Biosystems) real-time PCR system. The GAPDH was used as an internal standard.

HCEC = experiment: Consecutive treatments of cultured HCEC over several passages, observation of harmful effects; conditions: even after several passages

Compound: NC(=O)c1ccc(-c2nc(-c3ccc4c(c3)OCO4)c(-c3ccccn3)[nH]2)cc1 [SB431542]
- cell form in phase difference images [1]: a true shape of a polygonal cell and a single layer of a contact inhibition type
- expression of collagen type 1 at mRNA level (quantitative PCR) [2]: significantly decreased
- expression of fibronectin at mRNA level (quantitative PCR) [2]: significantly decreased
- harmful effects with regard to the forms or functions (HCEC): not seen any clear, harmful effects

— US20230057984A1, “NORMALIZATION OF CULTURE OF CORNEAL ENDOTHELIAL CELLS” (KYOTO PREFECTURAL PUBLIC UNIVERSITY CORPORATION, priority 2011, published 2023)
